Laboratory results taken from patent US12539292B2, “BRM targeting compounds and associated methods of use” (Arvinas Operations, Inc., priority 2018, dated 2026).
Read-outs that look alike come from different tables or passages of the source.

Molecular target: T1, BRM (Homo sapiens, UniProt P51531)
T1 construct: In-Cell Western Screen of BRM Degradation in SW1573 Cells; endogenous in cells; host or cells: SW1573
Experiment: In-cell Western screen of BRM degradation in SW1573 cells (Dmax and DC50)
Assay type: cell-based
Outline: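 Overnight compound treatment (18-20 h, final DMSO 0.1%) of SW1573 cells in DMEM with 10% FBS precedes fixation and in-cell Western staining with 800/680 nm dye-labelled secondaries. Plate images give DC50 and maximal degradation.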

[1] = BRM degradation, SW1573 cells, read-out: DC50
[2] = BRM degradation, SW1573 cells, tested at the top concentration of between 0.3 and 10 μM, read-out: Dmax (%) (% degraded)

T1 sequence (P51531 whole entry): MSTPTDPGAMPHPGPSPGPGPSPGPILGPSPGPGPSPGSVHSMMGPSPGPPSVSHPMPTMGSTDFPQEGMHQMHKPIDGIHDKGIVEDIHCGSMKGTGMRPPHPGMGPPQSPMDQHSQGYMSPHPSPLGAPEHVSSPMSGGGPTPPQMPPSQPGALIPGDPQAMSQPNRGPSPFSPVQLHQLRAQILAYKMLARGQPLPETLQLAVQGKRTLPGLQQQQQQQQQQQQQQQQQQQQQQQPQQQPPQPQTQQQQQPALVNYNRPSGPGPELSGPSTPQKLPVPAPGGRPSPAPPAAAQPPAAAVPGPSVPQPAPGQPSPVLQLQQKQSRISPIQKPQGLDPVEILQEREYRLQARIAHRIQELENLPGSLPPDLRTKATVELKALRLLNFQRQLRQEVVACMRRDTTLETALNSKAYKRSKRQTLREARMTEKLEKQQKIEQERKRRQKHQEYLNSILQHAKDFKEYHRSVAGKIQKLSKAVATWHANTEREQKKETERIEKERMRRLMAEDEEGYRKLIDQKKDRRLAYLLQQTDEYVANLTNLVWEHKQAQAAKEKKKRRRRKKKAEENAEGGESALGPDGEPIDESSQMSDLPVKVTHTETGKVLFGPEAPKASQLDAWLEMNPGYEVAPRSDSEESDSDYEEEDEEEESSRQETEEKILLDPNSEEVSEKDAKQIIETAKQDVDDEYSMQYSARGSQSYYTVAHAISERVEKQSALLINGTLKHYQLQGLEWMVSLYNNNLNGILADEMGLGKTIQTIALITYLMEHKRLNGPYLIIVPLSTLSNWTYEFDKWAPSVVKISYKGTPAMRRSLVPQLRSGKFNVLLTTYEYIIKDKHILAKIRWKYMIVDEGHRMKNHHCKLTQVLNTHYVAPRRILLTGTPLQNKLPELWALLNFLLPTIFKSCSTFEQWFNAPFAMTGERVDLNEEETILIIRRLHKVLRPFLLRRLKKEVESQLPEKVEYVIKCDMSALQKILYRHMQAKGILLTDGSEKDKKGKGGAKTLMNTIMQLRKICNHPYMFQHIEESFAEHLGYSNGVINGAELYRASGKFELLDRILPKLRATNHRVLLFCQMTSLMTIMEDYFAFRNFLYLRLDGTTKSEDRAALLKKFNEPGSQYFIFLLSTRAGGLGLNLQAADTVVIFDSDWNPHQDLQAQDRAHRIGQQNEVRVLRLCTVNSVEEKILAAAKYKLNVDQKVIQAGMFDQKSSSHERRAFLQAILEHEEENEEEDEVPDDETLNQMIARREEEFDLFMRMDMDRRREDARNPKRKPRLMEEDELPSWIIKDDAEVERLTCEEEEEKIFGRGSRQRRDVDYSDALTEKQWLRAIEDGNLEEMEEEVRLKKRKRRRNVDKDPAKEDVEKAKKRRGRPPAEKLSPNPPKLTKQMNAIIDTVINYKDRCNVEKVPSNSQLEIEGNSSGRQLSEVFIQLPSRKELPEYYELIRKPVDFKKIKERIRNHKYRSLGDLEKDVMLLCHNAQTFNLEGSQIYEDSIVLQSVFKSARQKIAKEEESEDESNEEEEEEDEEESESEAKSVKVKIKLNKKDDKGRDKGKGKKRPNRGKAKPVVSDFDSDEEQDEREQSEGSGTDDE

Compound	DC50 [1] [nM]	Dmax [2] [%]	also measured
Cc1ncsc1-c1ccc([C@H](C)NC(=O)[C@@H]2C[C@@H](O)CN2C(=O)[C@@H](c2onc(OCCN3CCC(O[C@H]4C[C@H](Oc5cc(N6C7CCC6CN(c6cc(-c8ccccc8O)nnc6N)C7)ccn5)C4)CC3)c2F)C(C)C)cc1 [compound 209, (2S,4R)-1-((2R)-2-(3-(2-(4-((1r,3R)-3-((4-(3-(3-amino-6-(2-hydroxyphenyl)pyridazin-4-yl)-3,8-diazabicyclo[3.2.1]octan-8-yl)pyridin-2-yl)oxy)cyclobutoxy)piperidin-1-yl)ethoxy)-4-fluoroisoxazol-5-yl)-3-methylbutanoyl)-4-hydroxy-N-((S)-1-(4-(4-methylthiazol-5-yl)phenyl)ethyl)pyrrolidine-2-carboxamide]	< 2.5	> 75	
Cc1ncsc1-c1ccc([C@H](C)NC(=O)[C@@H]2C[C@@H](O)CN2C(=O)C(c2cc(OCCn3cc(C(C)n4cc(-c5cc(-c6ccccc6O)nnc5N)cn4)ccc3=O)no2)C(C)C)cc1 (stereo in doubt) [compound 162, (2S,4R)-1-((2R)-2-(3-(2-(5-(1-(4-(3-amino-6-(2-hydroxyphenyl)pyridazin-4-yl)-1H-pyrazol-1-yl)ethyl)-2-oxopyridin-1(2H)-yl)ethoxy)isoxazol-5-yl)-3-methylbutanoyl)-4-hydroxy-N-((S)-1-(4-(4-methylthiazol-5-yl)phenyl)ethyl)pyrrolidine-2-carboxamide]	> 30		Dmax (%) (% degraded) (BRM degradation, SW1573 cells, tested at the top concentration of between 0.3 and 10 μM): A (A > 75)
Cc1ncsc1-c1ccc([C@H](C)NC(=O)[C@@H]2C[C@@H](O)CN2C(=O)[C@@H](c2cc(OCCN3CC[C@H](O[C@H]4C[C@H](Oc5cc(N6C7CCC6CN(c6cc(-c8ccccc8O)nnc6N)C7)ccn5)C4)C[C@H]3C)no2)C(C)C)cc1 [compound 628, (2S,4R)-1-((2R)-2-(3-(2-((2R,4S)-4-((1r,3S)-3-((4-(3-(3-amino-6-(2-hydroxyphenyl)pyridazin-4-yl)-3,8-diazabicyclo[3.2.1]octan-8-yl)pyridin-2-yl)oxy)cyclobutoxy)-2-methylpiperidin-1-yl)ethoxy)isoxazol-5-yl)-3-methylbutanoyl)-4-hydroxy-N-((S)-1-(4-(4-methylthiazol-5-yl)phenyl)ethyl)pyrrolidine-2-carboxamide]	< 2.5		Dmax (BRM degradation, SW1573 cells, read-out: Dmax (% degraded)): > 75%
Cc1ncsc1-c1ccc([C@H](C)NC(=O)C2C[C@@H](O)CN2C(=O)[C@@H](c2onc(OCCN3CCC(O[C@H]4C[C@H](Oc5cc(N6C7CCC6CN(c6cc(-c8ccccc8O)nnc6N)C7)ccn5)C4)CC3)c2Cl)C(C)C)cc1 (stereo partly drawn) [compound 362, (2S,4R)-1-((2R)-2-(3-(2-(4-((1r,3R)-3-((4-(3-(3-amino-6-(2-hydroxyphenyl)pyridazin-4-yl)-3,8-diazabicyclo[3.2.1]octan-8-yl)pyridin-2-yl)oxy)cyclobutoxy)piperidin-1-yl)ethoxy)-4-chloroisoxazol-5-yl)-3-methylbutanoyl)-4-hydroxy-N-((S)-1-(4-(4-methylthiazol-5-yl)phenyl)ethyl)pyrrolidine-2-carboxamide]			Dmax (SW1573, % degraded, when tested at the top concentration of between 0.3 and 10 μM, read-out: BRM Dmax (%)): > 75%; DC50 (target protein degradation, read-out: BRM DC50): < 2.5 nM
COc1cc(-c2scnc2C)ccc1[C@H](C)NC(=O)[C@@H]1C[C@@H](O)CN1C(=O)[C@@H](c1cc(OCCN2CCC(O[C@H]3C[C@H](Oc4cc(N5C6CCC5CN(c5cc(-c7ccccc7O)nnc5N)C6)ccn4)C3)CC2)no1)C(C)C [compound 202, (2S,4R)-1-((2R)-2-(3-(2-(4-((1r,3R)-3-((4-(3-(3-amino-6-(2-hydroxyphenyl)pyridazin-4-yl)-3,8-diazabicyclo[3.2.1]octan-8-yl)pyridin-2-yl)oxy)cyclobutoxy)piperidin-1-yl)ethoxy)isoxazol-5-yl)-3-methylbutanoyl)-4-hydroxy-N-((S)-1-(2-methoxy-4-(4-methylthiazol-5-yl)phenyl)ethyl)pyrrolidine-2-carboxamide]	< 2.5	> 75	
